{"source": "patent US20060147922A1", "about": "“Novel diagnostic and therapeutic methods and reagents therefor” (priority 2002, published 2006)", "key": {"EDD-chk2 interaction": {"tested_on": "EDD-chk2 interaction", "experiment": "chk2 immunoprecipitation / GSTchk2-N pull-down of EDD from MCF-7 nuclear extracts after DNA damaging agents", "assay_type": "cell-based, human", "conditions": "for amount of EDD associating with chk2: MCF-7 nuclear extracts, phleomycin 100 μg/ml or hydroxyurea 2 mM", "procedure": "Nuclear extracts from MCF-7 cells that had been cultured in the presence of the radiomimetic phleomycin (100 μg per ml) or from control MCF-7 cells were immunoprecipitated with polyclonal CHK2 antibody (N17) or incubated with goat IgG as a negative control. Following precipitation of immune complexes and extensive washing, bound proteins were separated by SDS-PAGE and western blofted for EDD or CHK2.\n(C) Nuclear extracts from MCF-7 cells that had been cultured in the presence of phleomycin (100 μg per ml) or from control MCF-7 cells were incubated with GSTCHK2-N or with GST alone bound to glutathione-Sepharose beads. Bound proteins were separated by SDS-PAGE and immunoblotted for EDD and GST.\n(§1) (B) Interactions between EDD, BRCA2 and chk2 are modified in response to DNA damaging agents. Nuclear extracts from MCF-7 cells that had been cultured in the presence of the radiomimetic phleomycin or the UV mimic hydroxyurea (HU), or from control MCF-7 cells, were subjected to immunoprecipitation with polyclonal chk2 antibody (N17). Following precipitation of immune complexes and extensive washing, bound proteins were separated by SDS-PAGE and western blotted for EDD, BRCA2 or chk2.\n(§2) MCF-7 cells were incubated in RPMI containing 0.5% foetal bovine serum for 18 h before addition of phleomycin (Cayla, France) at 100 μg/ml, hydroxyurea (Calbiochem, CA, USA) at 2 mM or PBS vehicle, for 6 h. Cells were harvested for total protein or nuclear protein extracts as described above."}, "BRCA2-chk2 interaction": {"tested_on": "BRCA2-chk2 interaction", "experiment": "chk2 immunoprecipitation, western blot for BRCA2, from MCF-7 nuclear extracts after DNA damaging agents", "assay_type": "cell-based, human", "conditions": "phleomycin or hydroxyurea", "source_text": "as §1, §2"}, "EDD-CIB interaction": {"tested_on": "EDD-CIB interaction", "experiment": "GST-CIB pull-down of EDD from MCF-7 nuclear extracts after DNA damaging agents", "assay_type": "cell-based, human", "procedure": "(D) Interaction of EDD and CIB in HEK 293 and MCF-7 cells. Left, HEK 293 cells overexpressing mutant EDD were transfected with a plasmid encoding Flag-tagged CIB or empty vector (vec). Extracts from these cells were subjected to immunoprecipitation using anti-FLAG Ab M2. Right, nuclear extracts prepared from MCF-7 cells following treatment with DNA damage agents phleomycin (Phleo) or hydroxyurea (HU) were incubated with either GST or GST-CIB fusion protein bound to glutathione-Sepharose beads. Bound proteins from both procedures were analysed by SDS-PAGE and western blotted for EDD and amounts bound are indicated as percentages relative to input.\nFor GST fusion protein pull-down of endogenous or recombinant EDD from cell lysates, 0.5 to 1 mg total protein was incubated with 5 μg GST or GST fusion protein bound to glutathione beads for 1-2 h at 4° C. Beads were washed extensively in 1% Triton X-100 lysis buffer and bound proteins resolved by SDS-PAGE and detected by immunoblotting with EDD antisera (Callaghan et al, Oncogene 17, 3479-3491, 1998). For immunoprecipitation, 10 μl importin α5 antisera (Peter Palese, Mount Sinai School of Medicine) was incubated with 0.5 to 1 mg cell lysate (4° C. for 1 h). Antibody conjugates were captured on protein A sepharose beads (4° C. for 1 h) and washed extensively in lysis buffer. […]"}, "chk2 FHA domain": {"molecular_target": "T1, chk2 FHA domain (Homo sapiens, UniProt O96017)", "T1 construct": "made in house; host or cells: GST fusion from E. coli BL21; EDDF5 by coupled in vitro transcription/translation (TNT Quick, Promega)", "T1 sequence (O96017 1-225)": "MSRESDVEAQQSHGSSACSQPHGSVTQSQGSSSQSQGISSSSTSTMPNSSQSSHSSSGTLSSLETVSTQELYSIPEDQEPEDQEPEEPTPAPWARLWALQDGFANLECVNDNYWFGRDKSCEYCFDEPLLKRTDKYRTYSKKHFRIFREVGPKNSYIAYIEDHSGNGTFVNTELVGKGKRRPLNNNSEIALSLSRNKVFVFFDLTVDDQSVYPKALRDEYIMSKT", "experiment": "GSTchk2-N pull-down of in vitro translated EDD in presence of FHA-binding phosphopeptide", "conditions": "pre-incubation of GSTchk2-N fusion protein with peptide", "procedure": "(D) The phosphopeptide-binding interface of the chk2 FHA domain is required for EDD binding. In vitro translated ^35S-labelled EDD derivative EDDF5 (aa 889-2799) was incubated with GSTchk2-N or GSTchk2-N derivatives containing R117A or I157T substitutions, or with GST alone bound to glutathione-Sepharose beads. The incubations with GSTchk2-N or GSTchk2-N(I157T) were carried out in the presence or absence of an FHA-binding phosphopeptide at 0, 80 or 150 μM. Bound EDD was detected by SDS-PAGE and autoradiography.\nGST-tagged fusion proteins were prepared from E. coli strain BL21 according to established protocols (Pharmacia Protocol Handbook). Soluble fusion proteins were bound to glutathione agarose and quantitated via Coomassie blue staining against protein standards. 35S-labelled EDD protein and mutants or SRC-1 were synthesised in a coupled in vitro transcription/translation system (TNT Quick, Promega) and 10-20 μl reaction mixture was diluted in 1% Triton X-100 lysis buffer (Callaghan et al, Oncogene 17, 3479-3491, 1998) and incubated with 5 μg of GST, GST-importin α5, GST-PR(CDE) or GST-CIB coupled to glutathione agarose beads at 4° C. for 2 h. Beads were collected by centrifugation, washed extensively in lysis buffer and resuspended in SDS-PAGE sample buffer. After boiling, bound protein was visualised following SDS-PAGE and autoradiography. […]"}, "PR(CDE)": {"molecular_target": "T2, PR(CDE) (Homo sapiens, UniProt P06401)", "T2 construct": "PR(CDE) (aa 456-933) regions into pGEX4T2 for GST fusion protein expression; made in house; host or cells: GST fusion from E. coli BL21; EDDF1 / SRC-1 by coupled in vitro transcription/translation (TNT Quick, Promega)", "T2 sequence (P06401 456-933)": "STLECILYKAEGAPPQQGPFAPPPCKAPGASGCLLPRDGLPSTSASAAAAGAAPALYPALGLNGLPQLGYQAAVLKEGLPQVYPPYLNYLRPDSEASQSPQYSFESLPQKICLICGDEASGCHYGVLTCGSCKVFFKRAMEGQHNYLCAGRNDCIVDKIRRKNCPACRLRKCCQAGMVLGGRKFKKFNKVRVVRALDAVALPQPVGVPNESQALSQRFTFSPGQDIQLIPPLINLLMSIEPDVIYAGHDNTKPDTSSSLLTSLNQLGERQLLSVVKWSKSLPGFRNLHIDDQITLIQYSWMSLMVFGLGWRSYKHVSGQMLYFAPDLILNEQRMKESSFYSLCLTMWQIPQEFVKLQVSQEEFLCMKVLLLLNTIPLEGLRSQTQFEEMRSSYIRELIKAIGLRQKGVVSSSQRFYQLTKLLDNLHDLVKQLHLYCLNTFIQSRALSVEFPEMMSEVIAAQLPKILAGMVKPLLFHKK", "experiment": "GST-PR(CDE) pull-down of in vitro translated EDDF1 or SRC-1", "assay_type": "binding", "conditions": "in vitro assays (data not shown)"}, "PR B": {"molecular_target": "T3, PR B (Homo sapiens, UniProt P06401)", "T3 sequence (P06401 1-933)": "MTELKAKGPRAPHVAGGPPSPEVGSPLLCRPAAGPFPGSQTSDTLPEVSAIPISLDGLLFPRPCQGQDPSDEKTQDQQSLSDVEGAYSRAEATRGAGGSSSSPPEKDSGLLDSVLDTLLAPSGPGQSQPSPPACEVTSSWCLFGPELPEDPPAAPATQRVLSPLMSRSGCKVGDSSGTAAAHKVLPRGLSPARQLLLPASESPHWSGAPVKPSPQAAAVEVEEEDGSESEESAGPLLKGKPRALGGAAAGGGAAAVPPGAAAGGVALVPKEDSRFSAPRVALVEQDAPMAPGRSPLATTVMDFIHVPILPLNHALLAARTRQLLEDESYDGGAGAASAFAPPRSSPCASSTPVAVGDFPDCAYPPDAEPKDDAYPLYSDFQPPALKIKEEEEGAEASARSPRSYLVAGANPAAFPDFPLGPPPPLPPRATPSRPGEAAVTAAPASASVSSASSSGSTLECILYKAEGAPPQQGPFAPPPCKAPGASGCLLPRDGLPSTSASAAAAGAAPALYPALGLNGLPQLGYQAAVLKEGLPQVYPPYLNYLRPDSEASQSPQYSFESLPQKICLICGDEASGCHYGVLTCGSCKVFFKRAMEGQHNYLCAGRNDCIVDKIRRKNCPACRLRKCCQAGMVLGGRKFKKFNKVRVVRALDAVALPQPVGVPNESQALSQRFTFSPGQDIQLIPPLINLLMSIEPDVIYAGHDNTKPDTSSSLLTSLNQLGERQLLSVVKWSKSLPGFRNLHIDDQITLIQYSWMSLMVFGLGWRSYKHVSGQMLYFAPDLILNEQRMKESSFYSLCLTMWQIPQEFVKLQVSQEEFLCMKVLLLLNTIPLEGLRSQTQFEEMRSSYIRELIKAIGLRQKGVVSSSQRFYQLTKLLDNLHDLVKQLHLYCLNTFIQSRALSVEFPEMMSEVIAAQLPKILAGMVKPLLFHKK", "experiment": "Nuclear receptor transactivation assay (MMTV-luciferase reporter)", "assay_type": "cell-based", "conditions": "HEK 293 cells, 24 h", "quoted_text": "(D) Effect of EDD on response to the synthetic progestin ORG2058. HEK 293 cells were transfected for reporter assay along with a transfection control plasmid (pRL-TK). Cells were harvested for luciferase assay following 24 h treatment with increasing concentrations of ORG2058.\nHEK 293 or COS7 cells were plated in 6-well plates (2×10^5 cells/well) and the medium changed to 2% charcoal-stripped FCS the following day. Transfection was carried out using 3-4 μl Fugene 6 Reagent (Roche) with 1-2 μg DNA comprised of 90 ng receptor expression vector, 450 ng luciferase reporter vector and 1.2 μg EDD, EDDM or SRC-1 cDNAs in either pRcCMV or pSG5, or empty vector, and 200 ng GFP expression vector pGFP20. […] In some experiments cell number was monitored using the CellTiter96® Proliferation Assay (Promega Corp., Madison, USA). Cells in 6-well plates were analysed for GFP expression by fluorescence microscopy to determine transfection efficiency and also used for preparation of protein lysates so that protein expression levels of various constructs could be compared. […] In some experiments pRSV-β-gal or pRL-TK (Promega Corp., Madison, USA) vectors were transfected in place of pGFP20 and transfection efficiency monitored by assaying for β-galactosidase or Renilla luciferase activity respectively."}}, "note": "Entries after “also recorded” stand apart in the source; their conditions may differ. Where no end group is shown, it is not given here. [ ]: non-standard residue; d: D form. pT = C[C@@H](OP(=O)(O)O)[C@H](N)C(=O)O"}
{"compound": "phleomycin", "values": [{"measurement": "mobility and levels of EDD protein", "setting": "EDD-chk2 interaction; MCF-7 nuclear extracts after treatment", "result": "no change in either the mobility or levels of EDD protein"}, {"measurement": "amount of EDD associating with chk2", "setting": "EDD-chk2 interaction", "result": "considerably reduced; also recorded: diminished; also recorded: Decreased association between EDD and CHK2"}, {"measurement": "amount of BRCA2 associated with chk2", "setting": "BRCA2-chk2 interaction", "result": "no effect on the amount of BRCA2 associated with chk2"}, {"measurement": "EDD protein levels", "setting": "EDD-CIB interaction; MCF-7 cells after treatment", "result": "unchanged"}, {"measurement": "association between EDD and CIB", "setting": "EDD-CIB interaction; MCF-7 cells, phleomycin 100 μg/ml 6 h, vs untreated or hydroxyurea-treated cells", "result": "significantly less association between EDD and CIB; also recorded: decrease in the amount of associating EDD"}]}
{"compound": "NC(=O)NO", "note": "[hydroxyurea]", "values": [{"measurement": "amount of EDD associating with chk2", "setting": "EDD-chk2 interaction", "result": "no effect on the association with EDD"}, {"measurement": "amount of BRCA2 associated with chk2", "setting": "BRCA2-chk2 interaction", "result": "considerably reduced"}]}
{"compound": "RWFDT(P)YLIRR: phosphopeptide that binds strongly to the FHA domain (RWFD[pT]YLIRR)", "values": [{"measurement": "peptide concentration that abolished binding between EDD and chk2-N", "setting": "chk2 FHA domain", "result": "greater than 50 μM"}]}
{"compound": "CCC1CC2C3CCC4=CC(=O)CCC4C3CCC2(C)C1C(=O)CO", "note": "(centres unmarked) [ORG2058]", "values": [{"measurement": "effect of PR ligand on interactions between PR(CDE) and SRC-1 or EDDF1", "setting": "PR(CDE)", "result": "not affected"}, {"measurement": "ORG2058 concentration at which that maximal response was exceeded", "setting": "PR B; with EDD overexpression", "result": 100, "unit": "pM"}, {"measurement": "ORG2058 concentration giving maximal response (luciferase activity)", "setting": "PR B; without EDD transfection", "result": 10, "unit": "nM"}]}
